Experimental data published in patent US20240218242A1, “COMPOUND, FLUORESCENT DYE, KIT, AND METHOD FOR DETECTING CELLS” (NATIONAL UNIVERSITY CORPORATION KOCHI UNIVERSITY, priority 2021, published 2024).

Key:
[1] = Evaluation of light stability (fluorescence intensity over time under UV excitation); type: physicochemical; settings: 3000 seconds after excitation by UV irradiation; toluene; 5 μM; excitation 378 nm; detection 483 nm
Protocol: The light stability of the compound A obtained in Example 1 was evaluated.
The light stability of the compound A and that of a commercially available solvatochromic dye Laurdan were compared (solvent: toluene; each dye concentration: 5 μM; excitation wavelength: 378 nm; detection wavelength: 483 nm). Laurdan is a compound with a CAS number of 74515-25-6. The fluorescence spectrum measurement was carried out using the same instrument as that used in Example 2.

[2] = Photophysical properties (absorption spectrum, fluorescence spectrum, fluorescence quantum yield) in organic solvents; type: physicochemical; settings: 5 μM
Protocol: The absorption spectrum and fluorescence spectrum in organic solvents of the compound A obtained in Example 1 were measured.
(§1) The absorption spectrum and the fluorescence spectrum were measured using a UV-Visible/NIR spectrophotometer (V-670 manufactured by JASCO Corporation) and a spectrofluorometer (FP6600 manufactured by JASCO Corporation), respectively. The fluorescence quantum yield was measured using an absolute PL quantum yield spectrometer (Hamamatsu Photonics K.K.: C 9920-02V). The concentration of the compound A was 5 μM for each solvent. For solvent species, toluene, dichloromethane, DMSO, and ethanol were used.
The absorption spectrum and fluorescence spectrum in organic solvents of the compound B obtained in Example 8 were measured.
as §1, with “Corporation), respectively, in the same manner as in Example 2.” for “Corporation), respectively.”, “compound B” for “compound A”
The absorption spectrum and fluorescence spectrum in organic solvents of the compound C obtained in Example 10 were measured.
as §1, with “Corporation), respectively, in the same manner as in Example 2.” for “Corporation), respectively.”, “compound C” for “compound A”

[3] = test system: human keratinocyte K16 (P4); test: Toxicity evaluation (MTT test); type: cell-based; settings: 100 μM, 24 hours
Protocol: The toxicity of fluorescence imaging of cells using the compound A obtained in Example 1 was evaluated. More specifically, the toxicity evaluation (MTT test) of the compound A to human keratinocyte K16 (P4) was performed. As a toxicity evaluation procedure, first, a medium containing the compound A at a maximum concentration of 100 μM (maximum DMSO concentration=0.5% v/v) was added to cells to prepare a 2-fold dilution series. After 24 hours, the medium was discarded and an MTT reagent ([…]) was added. After 3 hours, a 10% SDS reagent was added to the cells, and the absorbance at 570 nm was measured the next day.

[4] = test system: human skin tissue (frozen tissue); test: Two-photon fluorescence imaging of stained human skin tissue; settings: 10 μM; excitation 960 nm; in combination with clearing reagent (LUCID)
Protocol: Human skin tissue (frozen tissue) imaging was performed using the compound A obtained in Example 1. More specifically, two-photon fluorescence imaging of human skin tissues (frozen tissues) stained with the compound A of the Example was performed (compound A concentration: 10 μM, excitation wavelength: 960 nm; a clearing reagent (LUCID) was used in combination.).
For microscopy, a two-photon microscope A1R MP+(NIKON) was used. In the measurement, 960 nm was used as a laser light source for excitation for the compound A. Scanning was performed to a depth of 100 μm of the sample. The three-dimensional reconstructed image is obtained by processing the obtained data with attached software.
Human skin tissues were embedded in paraffin and then cut out to prepare tissue sections. The preparation of the sections (thickness: 5 μm) was performed by the procedure usually performed in histopathological examination. For staining with the compound A dye, deparaffinization was performed by a conventional method, and then staining was performed by immersion in the aforementioned dye at room temperature for several days to one week. In practice, the tissues were sufficiently stained by immersion in the dye at room temperature for 2 to 3 days.

[5] = Fluorescence spectrum measurement in lipid membrane (liposome); type: physicochemical; settings: compound 2 μM, lipid 200 μM
Protocol: The fluorescence spectrum of the compound A obtained in Example 1 in a lipid membrane (liposome) was measured. More specifically, the fluorescence spectrum of the compound A in a liposome composed of 1,2-dioleoyl-sn-glycero-3-phosphocholine (DOPC) and sphingomyelin (SM)/cholesterol (Chol) was measured (compound A concentration: 2 μM, lipid concentration: 200 μM). The fluorescence spectrum measurement was carried out using the same instrument as that used in Example 2.

[6] = test system: human prostate cancer cells (PC3); test: Confocal fluorescence imaging of stained cells; type: cell-based; settings: 500 nM, 30 minutes at room temperature; excitation 405 nm; green (490-590 nm) and red (655-755 nm) channels
Protocol: Fluorescence imaging of cells was performed using the compound A obtained in Example 1. More specifically, confocal fluorescence imaging of human prostate cancer cells (PC3) stained with the compound A of the Example was performed (compound A concentration: 500 nM; excitation wavelength: 405 nm).
For microscopic observation, a confocal scanning laser microscope (manufactured by Olympus Corporation, FV1000-D) was used. In the measurement, fluorescence was detected in a green (490-590 nm) channel and a red (655-755 nm) channel using a 405 nm laser light source.
As the human prostate cancer cells used for the observation, cultured cells were used. The compound A (500 nM) was added to the cultured cells, and the mixture was allowed to stand at room temperature for 30 minutes, and then imaging was performed.

Question: Which “Fluorescence intensity (light stability)” value [1] does the source give for `CCCCCCCCCCCC(=O)c1ccc2cc(N(C)C)ccc2c1` [Laurdan, reference compound] here?
Answer: The value was no more than 0.6.

Question: What does the source list for `CCCC(=O)/C=C/c1ccc2ccc3c(N4CCCCC4)ccc4ccc1c2c43` [compound A]?
Answer: Fluorescence quantum yield ([2]; DCM): 86%; Maximum absorption wavelength ([2]; DCM): 427 nm; Maximum fluorescence wavelength ([2]; DCM): 615 nm; Fluorescence quantum yield ([2]; DMSO): 79%; Maximum absorption wavelength ([2]; DMSO): 429 nm; Maximum fluorescence wavelength ([2]; DMSO): 647 nm; Fluorescence quantum yield ([2]; EtOH): 20%; Maximum absorption wavelength ([2]; EtOH): 427 nm; Maximum fluorescence wavelength ([2]; EtOH): 691 nm; Fluorescence quantum yield ([2]; Toluene): 82%; Maximum absorption wavelength ([2]; Toluene): 424 nm; Maximum fluorescence wavelength ([2]; Toluene): 546 nm; Fluorescence solvatochromism ([2]; toluene, dichloromethane, DMSO, ethanol): fluorescence solvatochromism sensitive to solvent polarity was observed; cell viability [3]: 93.9%; Staining of human skin tissue [4]: capable of strongly staining the membrane of each cell constituting the human skin tissue; Fluorescence intensity (light stability) [1]: the fluorescence intensity was maintained as it was; Fluorescence quantum yield ([5]; DOPC liposome): 37%; Maximum fluorescence wavelength ([5]; DOPC liposome): 603 nm; Fluorescence quantum yield ([5]; SM/Chol liposome): 72%; Maximum fluorescence wavelength ([5]; SM/Chol liposome): 577 nm; Fluorescence in cell membrane (plasma membrane) and oil droplets (lipid droplet) [6]: strong fluorescence was observed in the green channel
